Source: patent US20260125421A1, “ANTIVIRAL COMPOUNDS” (Hoffmann-La Roche Inc., priority 2022, published 2026)

Assays:
Test in all cases: biochemical
MERS-CoV 3CL^pro = MERS-CoV 3CL^pro (Middle East respiratory syndrome-related coronavirus, UniProt K9N7C7)
SARS-CoV-2 3CL^pro = biological target: T1, SARS-CoV-2 3CL^pro (Severe acute respiratory syndrome coronavirus 2, UniProt P0DTD1)
T1 construct: […]; made in house; host or cells: Escherichia coli

HCoV-229E 3CL^pro = biological target: T2, HCoV-229E 3CL^pro (Human coronavirus 229E, UniProt P0C6X1)
T2 construct: […]; made in house; host or cells: E. coli BL21 (DE3)

SARS-CoV 3CL^pro = SARS-CoV 3CL^pro (Severe acute respiratory syndrome coronavirus, UniProt P0C6X7)

T2 sequence (P0C6X1 2966-3267): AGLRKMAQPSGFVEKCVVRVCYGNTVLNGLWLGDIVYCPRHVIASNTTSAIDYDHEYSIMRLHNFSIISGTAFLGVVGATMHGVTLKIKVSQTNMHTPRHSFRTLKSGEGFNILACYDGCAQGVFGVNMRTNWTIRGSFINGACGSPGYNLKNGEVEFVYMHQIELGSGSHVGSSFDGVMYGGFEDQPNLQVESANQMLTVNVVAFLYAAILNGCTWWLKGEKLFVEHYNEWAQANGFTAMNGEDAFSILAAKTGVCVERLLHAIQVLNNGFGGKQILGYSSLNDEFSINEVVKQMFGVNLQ
Chain of MERS-CoV 3CL^pro (K9N7C7 3248-3553): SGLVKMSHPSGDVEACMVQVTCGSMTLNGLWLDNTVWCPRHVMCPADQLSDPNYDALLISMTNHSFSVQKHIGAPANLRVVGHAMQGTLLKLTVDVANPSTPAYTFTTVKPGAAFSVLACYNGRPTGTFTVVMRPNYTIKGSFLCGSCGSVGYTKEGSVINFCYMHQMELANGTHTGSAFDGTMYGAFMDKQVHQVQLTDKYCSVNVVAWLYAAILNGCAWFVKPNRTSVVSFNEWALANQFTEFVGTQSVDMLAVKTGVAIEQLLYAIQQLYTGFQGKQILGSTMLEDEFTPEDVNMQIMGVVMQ

Row | Structure (SMILES) | IC50 (MERS-CoV 3CL^pro) [nM] | IC50 (SARS-CoV-2 3CL^pro) [nM] | IC50 (HCoV-229E 3CL^pro) [nM] | IC50 (SARS-CoV 3CL^pro) [nM]
1 | CC1(C)C[C@@H](CN(NC(=O)[C@@H]2[C@H]3CCC[C@H]3CN2C(=O)[C@@H](NC(=O)[C@H](F)Cl)C(C)(C)C)C(=O)[C@@H](F)Cl)C(=O)N1 [Example 16] | 6160 | 22 | > 10000 | 33
2 | CC(C)(C)[C@H](NC(=O)[C@@H]1CC1(F)F)C(=O)N1C[C@@H]2CCC[C@@H]2[C@H]1C(=O)NN(C[C@H]1C(=O)N[C@H]2C[C@H]21)C(=O)[C@H](F)Cl [Example 36, (1S)-N-[(1S)-1-[(3S,3aS,6aR)-3-[[[(2R)-2-chloro-2-fluoro-acetyl]-[[(1S,4S,5S)-3-oxo-2-azabicyclo[3.1.0]hexan-4-yl]methyl]amino]carbamoyl]-3,3a,4,5,6,6a-hexahydro-1H-cyclopenta[c]pyrrole-2-carbonyl]-2,2-dimethyl-propyl]-2,2-difluoro-cyclopropanecarboxamide] | 174 | 13 | 54 | 14
3 | CCC(CC)[C@H](NC(=O)C(F)F)C(=O)N1C[C@@H]2CCC[C@@H]2[C@H]1C(=O)NN(C[C@@H]1CC(C)(C)NC1=O)C(=O)[C@@H](F)Cl [Example 12, N-[(1S)-1-[(3S,3aS,6aR)-3-[[[(2S)-2-chloro-2-fluoro-acetyl]-[[(3S)-5,5-dimethyl-2-oxo-pyrrolidin-3-yl]methyl]amino]carbamoyl]-3,3a,4,5,6,6a-hexahydro-1H-cyclopenta[c]pyrrole-2-carbonyl]-2-ethyl-butyl]-2,2-difluoro-acetamide] | 555 | 9 | 1240 | 13
4 | CC(C)(C)[C@H](NC(=O)[C@@H]1CC1(F)F)C(=O)N1C[C@@H]2CCC[C@@H]2[C@H]1C(=O)NN(C[C@H]1C(=O)N[C@@H]2C[C@@H]21)C(=O)[C@H](F)Cl [Example 35, (1S)-N-[(1S)-1-[(3S,3aS,6aR)-3-[[[(2R)-2-chloro-2-fluoro-acetyl]-[[(1R,4S,5R)-3-oxo-2-azabicyclo[3.1.0]hexan-4-yl]methyl]amino]carbamoyl]-3,3a,4,5,6,6a-hexahydro-1H-cyclopenta[c]pyrrole-2-carbonyl]-2,2-dimethyl-propyl]-2,2-difluoro-cyclopropanecarboxamide] | 117 | 10 | 41 | 7
5 | CC1(C)C[C@@H](CN(NC(=O)[C@@H]2[C@H]3CCC[C@H]3CN2C(=O)[C@@H](NC(=O)[C@@H]2CC2(F)F)C(C)(C)C)C(=O)[C@@H](F)Cl)C(=O)N1 [Example 2a, (1S)—N-[(1S)-1-[(3S,3aS,6aR)-3-[[[(2S)-2-chloro-2-fluoro-acetyl]-[[(3S)-5,5-dimethyl-2-oxo-pyrrolidin-3-yl]methyl]amino]carbamoyl]-3,3a,4,5,6,6a-hexahydro-1H-cyclopenta[c]pyrrole-2-carbonyl]-2,2-dimethyl-propyl]-2,2-difluoro-cyclopropanecarboxamide] | 2910 | 29 | 7850 | 64
6 | CC(C)(C)[C@H](NC(=O)[C@@H]1CC1(F)F)C(=O)N1C[C@@H]2CCC[C@@H]2[C@H]1C(=O)NN(C[C@@H]1CC2(CC2)NC1=O)C(=O)[C@H](F)Cl [Example 25] | 62 | 12 | 40 | 14
